Source: patent US4732986A, “Benzothiazole derivatives, processes for their preparation and pharmaceutical compositions containing these compounds” (Ludwig Heumann & Co. GmbH, priority 1984, dated 1988)

Key:
leucocyte migration = assay: Leucocyte migration test (carrageenin-impregnated polyester sponge); assay type: in vivo; conditions: male rats, 50 mg/kg i.g., given immediately after sponge implantation and after 5 and 21 hours
Method: 2. Leucocyte migration test
A polyester sponge impregnated with 2% carrageenin solution was implanted subcutaneously in the neck region in male rats (140-150 g) (see G. A. Higgs et al, Eur. J. Pharmacol. 66, 81 (1980), A. W. Ford-Hutchinson et al, J. Pharmacol. Methods 1, 3 (1978)). The sponges were removed after 24 hours. The leucocytes which had migrated in were washed out in a PBS solution (pH 7.4, 0.5% trypsin, 10 units/ml of heparin) at 37° C. for 30 minutes.
The sponges were then carefully pressed out and centrifuged (10 minutes, 500 revs/min). The leucocytes in the washing liquid were then counted. The test substances, which were taken up in 1% tylose, and the vehicle (1% tylose) were administered intragastrally with a stomach tube immediately after implantation of the sponge and after 5 hours and 21 hours. The percentage inhibition of leucocyte migration after administration of the test substances was compared with that of the controls. The average inhibitory doses (ED50) were calculated by means of the regression graphs.

[1] = test system: acute inflammatory oedema of the paws; assay: Rat's paw oedema test (carrageenin), inhibition of the increase in paw volume; assay type: in vivo; conditions: po, 1 h, male rats, intragastral, one hour after carrageenin
Method: An acute inflammatory oedema of the paws was induced in male rats (100-120 g) by subplantar injection of 0.1 ml of 2% carrageenin (dissolved in aqueous 0.9% NaCl solution). The volume of the paws was measured with a volumetric paw measuring apparatus 1 hour and 4 hours after the carrageenin injection. The differences between the two measurements of the paws was calculated. The test substances were suspended in 1% tylose and administered intragastrally through a stomach tube one hour after the carrageenin injection. The control animals were only given the vehicle (1% tylose). The percentage inhibition of the increase in volume in the treated animals was obtained by a comparison with the untreated controls. The average inhibitory doses (ED50) were calculated by means of the regression curves.

[2] = test system: LTC 4-synthesis and -release (lipoxygenase); assay: Inhibition of LTC 4-synthesis and -release in vitro; assay type: cell-based
Description: (§1) 3. Inhibition of PGE 2- and LTC 4-synthesis and -release

[3] = test system: PGE 2-synthesis and -release (cyclooxygenase); assay: Inhibition of PGE 2-synthesis and -release in vitro; assay type: cell-based
Description: as §1

CN(C)C=NNc1nc2ccccc2s1 [Example 1, N^1-(benzothiazol-2-yl)-N^3,N^3-dimethylformamidrazone]
Inhibition of leucocyte migration (control = 0%) (leucocyte migration): 25% | ED50 [1]: 14 mg/kg | LTC4 (% of controls) ([2]; at 10^-4): 51 % of controls | lipoxygenase inhibition (in words) ([2]; at 10^-4, conclusion from LTC4 test): lipoxygenase inhibition at 10^-4 | LTC4 (% of controls) ([2]; at 10^-5): > 100 % of controls | LTC4 (% of controls) ([2]; at 10^-6): > 100 % of controls | PGE2 (% of controls) ([3]; at 10^-4): 29 % of controls | PGE2 (% of controls) ([3]; at 10^-5): 84 % of controls | PGE2 (% of controls) ([3]; at 10^-6): 99 % of controls | cyclooxygenase inhibition (in words) ([3]; conclusion from PGE2 test): cyclooxygenase inhibitor

CN(C)C=NN(C)c1nc2ccccc2s1 [Example 2, N^1-(benzothiazol-2-yl)-N^1,N^3,N^3-trimethylformamidrazone]
ED50 [1]: 15 mg/kg

CN(NC=O)c1nc2ccccc2s1 [Example 4, N^2-(benzothiazol-2-yl)-N^2-methyl-formhydrazide]
Inhibition of leucocyte migration (control = 0%) (leucocyte migration): 50% | ED50 [1]: 50 mg/kg

CC=NNc1nc2ccc(C)cc2s1 [Example 7, N-(6-methylbenzothiazol-2-yl)acetaldehydehydrazone]
ED50 [1]: 25 mg/kg

CC(=O)NNc1nc2ccc(C)cc2s1 [Example 6, N^2-(6-methylbenzothiazol-2-yl)-acetohydrazide]
ED50 [1]: 50 mg/kg

CCOC(C)=NNc1nc2ccccc2s1 [Example 5, N^2-(benzothiazol-2-yl)-ethyl-acetohydrazonate]
Inhibition of leucocyte migration (control = 0%) (leucocyte migration): 30% | ED50 [1]: 25 mg/kg

CC=NNc1nc2cc(Cl)ccc2s1 [Example 8]
ED50 [1]: ~80 mg/kg
